Molecules are shown by their SMILES. pIC50: −log10 of the molar value.

The nature of this assay: Growth inhibition of thymidylate synthase(TS) in L1210 cells.
In turn, `CCN(Cc1ccc2ncnc(SC)c2c1)c1ccc(C(=O)NC(CCC(=O)O)C(=O)O)cc1` (stereo not drawn) showed a pIC50 of 3.93.

On to `C#CCN(Cc1ccc2nc[nH]c(=S)c2c1)c1ccc(C(=O)NC(CCC(=O)O)C(=O)O)cc1` (stereo not drawn), for which the pIC50 is 6.96. Compared with the last molecule, the pIC50 is 3.03 log units higher.

In turn, `CCN(Cc1ccc2nc[nH]c(=S)c2c1)c1ccc(C(=O)NC(CCC(=O)O)C(=O)O)cc1` (stereo not drawn) showed a pIC50 of 6.59.

What is called pIC50 is the negative decadic logarithm of the IC50, by convention in mol/L. Low readings indicate a large IC50, high ones a small IC50.

The record behind these values is BindingDB's records for doi:10.1021/jm00107a015 (Institute of Cancer Research, 1991).
